Assay [1] concerns T. b. rhodesiense EATRO3. Briefly: In vivo activity of PRM-S in BALB/c mice infected with T. b. rhodesiense EATRO3. The following applies: for MRD (mean relapse day) / MSD (mean survival day) / cured/infected: BALB/c; for cured/infected: from day 3 post-infection. From the text: (§1) In order to establish the trypanocidal capacity of PRM-S, C57BL/6J or BALB/c mice were infected with T. b. brucei 427 or T. b. rhodesiense EATRO3 strains, respectively, and infection was allowed to proceed for 3 days before treatment with PRM-S, one dosage per day for 4 days.
(§2) Female C57BL/6 or BALB/c mice (Jackson Laboratories, Bar Harbor, Me.) were split in groups containing between three and six mice (6-8 weeks old), and infected via intraperitoneal route with 5×10^3 (T. b. brucei strain 427) or 1×10^4 (T. b. rhodesiense EATRO3) trypanosomes, respectively. Different dosages of PRM-S ([…] and 50 mg·kg^−1) were administered once/day intraperitoneally (200 μL) for 4 days starting on the third day post-infection, in 0.5% w/v hydroxypropylmethylcellulose (HPMC), 0.4% v/v Tween 80 and 0.5% v/v benzyl alcohol used as dosage formulation. One group of mice in each case was also infected and treated with the vehicle as control, Parasitaemia was monitored daily in a haematocytometer under a microscope from the third day post-infection and after tail blood extraction.

In assay [2] the test system is T. cruzi epimastigotes. Briefly: In vitro activity against T. cruzi epimastigotes (resazurin viability). As to conditions: 3 days. It is filed as cell-based, Trypanosoma cruzi Tulahuen strain C4. On the procedure: (§3) Activity of pradimicin A (PRM-A) and S (PRM-S) against T. cruzi was studied in epimastigote and trypomastigote forms of T. cruzi Tulahuen strain C4.
(§4) In the case of epimastigote forms, 2×10^5 parasites were seeded in a 96-wells plate (100 μL) and incubated 3 days with different drug concentrations between 0.0625 μg·mL^−1 and 100 μg·mL^−1 in liver infusion tryptose (LIT) medium supplemented with 10% fetal calf serum at 28° C. In the case of trypomastigotes, 1×10^5 parasites were seeded in a 96-well plate (100 μL) and incubated with different drug concentrations between 0.006 μg·mL^−1 and 12.5 μg·mL^−1 for 24 h in RPMI 1640 medium supplemented with 10% FBS, 2 mM L-glutamine, 100 U·mL^−1 penicillin and 100 μg·mL^−1 streptomycin at 37° C. and 5% CO2. Cell viability of epimastigotes and lysis percentage of trypomastigotes were determined by adding 10 μL of resazurin (0.11 mg·mL^−1 in PBS) and measuring fluorescence at 570/590 nm of excitation/emission wavelength after 2 h of incubation using a Spectramax Gemini EM microplate fluorometer (Molecular Devices Cooperation, Sunnyvale, Calif., USA). EC50 or 50% lysis values were defined as the drug concentration required for half-maximal inhibition of the cellular growth rate or half-maximal lysis and were calculated by nonlinear regression analysis.
On the technique in general: Resazurin is reduced to fluorescent resorufin, in cell work by metabolically active cells.

Assay [3] concerns T. cruzi trypomastigotes. Briefly: Lysis of T. cruzi trypomastigotes (resazurin). It is filed as cell-based, Trypanosoma cruzi Tulahuen strain C4. As to conditions: 24 h, half-maximal lysis. On the procedure: as §3, §4
The subject of assay [4] is L. donovani amastigotes. Briefly: In vitro activity against intracellular L. donovani amastigotes in mouse peritoneal macrophages. It is filed as cell-based, Leishmania donovani MHOM/ET/67HU3. The following applies: 72 h. On the procedure: (§5) Activity of pradimicin A (PRM-A) and S (PRM-S) was tested against promastigote and amastigote forms of L. donovani MHOM/ET/67HU3.
To determine activity against the amastigote form, 1×10^5 mouse peritoneal macrophages were seeded in 24-well tissue culture chamber slides using RPMI 1640 medium supplemented with 10% HIFBS, 2 mM L-glutamine, 100 U·mL-1 penicillin and 100 μg·mL^−1 streptomycin. Compounds were added and cells were then infected with late-stage promastigotes at a macrophage/parasite ratio of 1:10. After 8 h of infection at 35° C. and 5% CO2, extracellular parasites were removed by washing with serum-free medium, and infected macrophage cultures were incubated with different CBA concentrations for 72 h in RPMI 1640 medium plus 10% HIFBS at 37° C. with 5% CO2. After that, macrophages were fixed with 2.5% p-formaldehyde in PBS for 30 min at 4° C., permeabilized with 0.1% Triton X-100 in PBS for 30 min, and incubated with Gold antifade reagent plus DAPI in order to detect the intracellular parasites. Drug activity was determined from the percentage of infected cells and from the number of amastigotes per cell in drug-treated versus non-treated cultures.

For assay [5], the system named is L. donovani promastigotes. Briefly: In vitro activity against L. donovani promastigotes (proliferation, cell counting). It is filed as cell-based, Leishmania donovani MHOM/ET/67HU3. As to conditions: 48 h. On the procedure:
as §5
In the case of the promastigote forms, 2.5×10^4 parasites were incubated in 24-well plates (1 mL) for 48 h at different drug concentrations between 0.391 μg·mL^−1 and 50 μg·mL^−1 in RPMI 1640 modified supplemented with 20% FBS, 2 mM L-glutamine, 100 U·mL^−1 penicillin and 100 μg·mL^−1 of streptomycin. The proliferation was determined by counting the number of cells using a Z1 Coulter counter. EC50 values were calculated by nonlinear regression analysis.

Assay [6] deals with T. b. brucei 427. Put plainly: In vivo activity of PRM-S in C57BL/6J mice infected with T. b. brucei 427. As to conditions: for MRD (mean relapse day) / MSD (mean survival day) / cured/infected: C57BL/6J; for cured/infected: from day 3 post-infection.
Excerpt: as §1, §2

Assay [7] concerns T. brucei BSF. Put plainly: In vitro growth inhibition of T. brucei bloodstream forms. In kind it is cell-based, Trypanosoma brucei brucei. On the procedure: Trypanosoma brucei brucei single-marker bloodstream forms (BSF) (antigenic type 1.2, MITat 1.2, clone 221a) strain 427, harbouring T7 RNA polymerase and the tetracycline repressor (Wirtz et al., 1999) and Trypanosoma brucei rhodesiense EATRO3 ETat1.2 TREU164 (Turner et al., 2004) were used in this study. Bloodstream forms were cultured at 37° C. and 5% CO2 in HMI-9 supplemented with 10% (v/v) or 20% fetal bovine serum, respectively. The non-peptidic CBAs pradimicin A (PRM-A, derived from Actinomadura hibisca) (Oki et al., 1988) and pradimicin S (PRM-S, derived from Actinomadura spinosa strain A A08 51) (Saitoh et al., 1993) were tested for inhibition of parasite growth.

Assay [8] concerns Macrophages. Put plainly: Toxicity in macrophages. It is filed as cell-based, mouse.
Where [9] appears, read: 4 × 25 mg·kg^−1 i.p., listed as PRMS.
Where [10] appears, read: 4 × 50 mg·kg^−1 i.p., listed as PRMS.
Setting [11] is: read-out: EC50 (% Lysis) T. cruzi.

Converted amounts (≈) assume the structure as drawn. Read-outs that look alike come from different tables or passages of the source.

One may read the EC50 as the concentration at which the effect is half-maximal.

As for `CN[C@@H]1[C@H](O[C@@H]2O[C@H](CO)[C@@H](O)[C@H](OS(=O)(=O)O)[C@H]2O)[C@@H](O)[C@H](O[C@H]2c3cc(C)c(C(=O)N[C@H](C)C(=O)O)c(O)c3-c3c(cc4c(c3O)C(=O)c3cc(OC)cc(O)c3C4=O)[C@@H]2O)O[C@@H]1C` [PRM-S, pradimicin S], the “mice in which parasitaemia appeared subsequently (relapse)” value in assay [1] (25 mg·kg^−1) is listed as “three of the five mice”. Further, the “MRD (mean relapse day)” value in assay [1] (4 × 25 mg·kg^−1 i.p.), in assay [1] (setting [9]), in assay [6] (4 × 25 mg·kg^−1 i.p.) and in assay [6] (setting [9]) was 10.7 ± 0.6 days each time. Also, the “MSD (mean survival day)” value in assay [1] (4 × 25 mg·kg^−1 i.p.) was 44.4 ± 41.7 days; in assay [1] (setting [9]), 44.4 ± 41.7 days; in assay [1] (4 × 50 mg·kg^−1 i.p.), over 90 days; in assay [1] (setting [10]), over 90 days; in assay [6] (4 × 25 mg·kg^−1 i.p.) it was 18.0 ± 7 days; in assay [6] (setting [9]) it was 18.0 ± 7 days. The “MSD (mean survival day)” value in assay [6] (4 × 50 mg·kg^−1 i.p.) and in assay [6] (setting [10]) was over 90 days each time. Moreover, the cured/infected is reported as 2/5 in assay [1] (4 × 25 mg·kg^−1 i.p.), 5/5 in assay [1] (4 × 50 mg·kg^−1 i.p.), 0/3 in assay [6] (4 × 25 mg·kg^−1 i.p.) and 6/6 in assay [6] (4 × 50 mg·kg^−1 i.p.). For the same compound, the parasitaemia result in assay [1] (both dosages (25 and 50 mg·kg^−1), after the first administration) is reported as “drastically reduced”; in assay [6] (after the first dose of 50 mg·kg^−1), “dramatic decrease of parasitaemia”; in assay [6] (after the third dose of 25 mg·kg^−1) it was “dramatic decrease of parasitaemia”. Moreover, the EC50 in assay [2] is 19 ± 2.6 µM; in assay [3] (setting [11]), 1.4 ± 0.3 µM; in assay [4], 2.3 ± 0.3 µM; in assay [5], 22.9 ± 1.9 µM; in assay [7], 6.44 ± 0.08 µM; in assay [8], over 100 µM. The “EC50 (μg · mL^−1)” value in assay [2] is 17.3 ± 2.4 µg/mL (≈ 18.2 µM); in assay [4], 2.2 ± 0.2 µg/mL (≈ 2.31 µM); in assay [5], 21.8 ± 1.9 µg/mL (≈ 22.9 µM); in assay [7] it was 5.85 ± 0.08 µg/mL (≈ 6.15 µM); in assay [8], over 100 µg/mL. Further, the “EC50 (% Lysis) T. cruzi” value in assay [3] is 1.2 ± 0.3 µg/mL (≈ 1.26 µM).

In the case of `CN[C@@H]1[C@H](O[C@@H]2OC[C@@H](O)[C@H](O)[C@H]2O)[C@@H](O)[C@H](O[C@H]2c3cc(C)c(C(=O)N[C@H](C)C(=O)O)c(O)c3-c3c(cc4c(c3O)C(=O)c3cc(OC)cc(O)c3C4=O)[C@@H]2O)O[C@@H]1C` [PRM-A, pradimicin A], the EC50 in assay [2] is 28.1 ± 1.3 µM; in assay [3] (setting [11]) it was 1.2 ± 0.3 µM; in assay [4] it was 0.8 ± 0.1 µM; in assay [5] it was 21.4 ± 0.8 µM; in assay [7], 3.8 ± 0.05 µM; in assay [8], over 100 µM. Besides, the “EC50 (μg · mL^−1)” value in assay [2] was 23.6 ± 1.1 µg/mL (≈ 28.1 µM); in assay [4], 0.7 ± 0.1 µg/mL (≈ 0.833 µM); in assay [5], 18.0 ± 0.7 µg/mL (≈ 21.4 µM); in assay [7] it was 3.20 ± 0.04 µg/mL (≈ 3.81 µM); in assay [8], over 100 µg/mL. For the same compound, the “EC50 (% Lysis) T. cruzi” value in assay [3] was 1.0 ± 0.3 µg/mL (≈ 1.19 µM).

As to `CN[C@@H]1[C@H](O[C@@H]2O[C@H](CO)[C@@H](O)[C@H](OS(=O)(=O)O)[C@H]2O)[C@@H](O)[C@H](O[C@@H]2c3cc(C)c(C(=O)N[C@H](CO)C(=O)O)c(O)c3-c3c(cc4c(c3O)C(=O)c3cc(OC)cc(O)c3C4=O)[C@H]2O)O[C@@H]1C` [PRM-FS, Pradimicin-FS], in assay [5], it took 50.8 ± 2.1 µM to reach a half-maximal effect (EC50) and the “EC50 (μg · mL^−1)” value was 49.1 ± 2.0 µg/mL (≈ 50.8 µM). Also, in assay [7], the EC50 came out at 13.5 ± 0.8 µM and the “EC50 (μg · mL^−1)” value amounted to 13.0 ± 0.7 µg/mL (≈ 13.4 µM).

On to `O=C(Cn1ccnc1[N+](=O)[O-])NCc1ccccc1` [Benznidazole, reference compound], for which the EC50 in assay [3] (Trypanosoma cruzi, read-out: EC50 (% Lysis) T. cruzi) was determined as 5.2 ± 0.2 µM; in assay [3] (Trypanosoma cruzi, read-out: EC50 (% Lysis) T. cruzi (μg · mL^−1)), 1.35 ± 0.05 µg/mL.
